# Structures can show the parent of a compound that is named as a salt.
# Target: T1, AT1 receptor (Rattus norvegicus, UniProt P25095)
# T1 construct: rat liver membranes; from tissue; host or cells: rat liver membranes
# T1 sequence (P25095 1-359): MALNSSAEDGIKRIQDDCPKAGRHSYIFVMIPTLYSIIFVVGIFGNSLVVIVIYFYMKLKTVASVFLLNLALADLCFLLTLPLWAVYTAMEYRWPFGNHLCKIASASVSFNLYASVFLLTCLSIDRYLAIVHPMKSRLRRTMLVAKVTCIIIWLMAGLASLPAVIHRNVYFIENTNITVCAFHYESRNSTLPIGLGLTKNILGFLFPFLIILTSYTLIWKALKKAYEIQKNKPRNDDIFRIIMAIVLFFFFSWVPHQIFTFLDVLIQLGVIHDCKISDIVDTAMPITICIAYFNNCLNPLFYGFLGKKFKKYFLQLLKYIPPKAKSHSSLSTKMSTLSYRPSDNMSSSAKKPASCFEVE
# Experiment: [^3 H]angiotensin II binding to rat liver membranes (AT1 test)
# Settings: inhibition of [^3 H]angiotensin II binding
# Description: The compounds of Formula I or Ia are antagonists of angiotensin II. Dudley, D. T., et al, Molecular Pharmacology 1990;38:370-377 reported the existence of 2 subclasses of angiotensin II binding sites in rabbit adrenal gland and uterus and in the rat liver which differ in their tissue distribution and affinity for various peptide and nonpeptide ligands. Thus, the compounds of Formula I or Ia were tested for their ability to inhibit [^3 H]angiotensin II binding to rat liver membranes (AT1 test) according to the methods described by Dudley, D. T., et al, Molecular Pharmacology 1990;38:370-7. […] It is well established that compounds which antagonize the effect of angiotensin II at the AT1 receptor have value for treatment of hypertension and heart failure.
row,IC50 [µM],Compound
1,0.0266,"CCCCCCN1C(=O)/C(=C/c2cnc(CCCC)n2Cc2ccc(C(=O)OC)cc2)N(Cc2ccccc2)C1=O [Example 50, Methyl Z-4-[[2-butyl-5-[[1-hexyl-2,5-dioxo-3-(phenylmethyl)-4-imidazolidinylidene]methyl]-1H-imidazol-1-yl]methyl]benzoate monohydrochloride]"
2,0.26,"CCCCc1ncc(/C=C2/C(=O)N(CCCC)C(=O)N2Cc2cccc[n+]2[O-])n1Cc1ccc(C(=O)OC)cc1 [Example 57, Methyl Z-4-[[2-butyl-5-[[1-butyl-2,5-dioxo-3-[(2-pyridinyl-N-oxide)-methyl]-4-imidazolidinylidene]methyl]-1H-imidazol-1-yl]methyl]benzoate]"
3,0.00121,"CCCCc1ncc(/C=C2/C(=O)N(CCCC)C(=O)N2Cc2csc(C)n2)n1Cc1ccc(C(=O)O)cc1 [Example 59, Z-4-[[2-butyl-5-[[1-butyl-3-[(2-methyl-4thiazolyl)methyl]-2,5-dioxo-4-imidazolidinylidene]methyl]-1H-imidazol-1-yl]methyl]benzoic acid]"
4,0.0598,"CCCCc1ncc(/C=C2/C(=O)N(CCCC)C(=O)N2Cc2ccccc2Cl)n1Cc1ccc(C(=O)OC)cc1 [Example 61, Methyl Z-4-[[2-butyl-5-[[1-butyl-3-[(2-chlorophenyl)methyl]-2,5-dioxo-4-imidazolidinylidene]methyl]-1H-imidazol-1-yl-]methyl]benzoate monohydrochloride]"
5,0.00121,"CCCCc1ncc(/C=C2/C(=O)N(CCCC)C(=O)N2Cc2csc(N)n2)n1Cc1ccc(C(=O)OC)cc1 [Example 62, Methyl Z-4-[[2-butyl-5-[[1-butyl-3-[(2-amino-4-thiazolyl)methyl]-2,5-dioxo-4-imidazolidinylidene]methyl]-1H-imidazol-1-yl]methyl]benzoate dihydrochloride]"
6,0.2,"CCCCc1ncc(CC2C(=O)NC(=O)N2CCCC)n1Cc1ccc(C(=O)O)cc1 (stereo not shown) [Example 65, 4-[[2-Butyl-5-[(3-butyl-2,5-dioxo-4-imidazolidinyl)methyl]-1H-imidazol-1-yl]methyl]benzoic acid]"
7,0.0042,"CCCCc1ncc(/C=C2/C(=O)N(CCCC)C(=O)N2Cc2csc(C)n2)n1Cc1ccc(C(=O)OC)cc1 [Example 68, Methyl Z-4-[[2-butyl-5-[[1-butyl-3-[(2-methyl-4-thiazolyl)methyl]-2,5-dioxo-4-imidazolidinylidene]methyl]-1H-imidazol-1-yl]methyl]benzoate dihydrochloride]"

# More lines, now with the values behind:
row,Compound,IC50 [µM]
1,"CCCCc1ncc(/C=C2/C(=O)N(CCCC)C(=O)N2C(c2ccccc2)c2ccccc2)n1Cc1ccc(C(=O)OC)cc1 [Example 42, Methyl Z-4-[[2-butyl-5-[[1-butyl-2,5-dioxo-3-(diphenylmethyl)-4-imidazolidinylidene]methyl]-1H-imidazol-1-yl]methyl]benzoate mono hydrochloride]",0.884
2,"CCCCc1ncc(/C=C2/C(=O)N(CCCC)C(=O)N2CC2CCCCC2)n1Cc1ccc(C(=O)OC)cc1 [Example 43, Methyl Z-4-[[2-butyl-5-[[1-butyl-3-(cyclohexylmethyl)-2,5-dioxo-4-imidazolidinylidene]methyl]-1H-imidazol-1-yl]methyl]benzoate mono hydrochloride]",0.00333
3,"CCCCc1ncc(/C=C2/C(=O)N(CCCC)C(=O)N2Cc2nn[nH]n2)n1Cc1ccc(C(=O)OC)cc1 [Example 44, Methyl Z-4-[[2-butyl-5-[[1-butyl-2,5-dioxo-3-(1H-tetrazol-5-ylmethyl)-4-imidazolidinylidene]methyl]-1H-imidazol-1-yl]methyl]benzoate monohydrochloride]",0.0417
4,"CCCCCCN1C(=O)N/C(=C\c2cnc(CCCC)n2Cc2ccc(C(=O)OC)cc2)C1=O [Example 47, Methyl ZX-4-[[2-butyl-5-[(1-hexyl-2,5-dioxo-4-imidazolidinylidene)methyl]-1H-imidazol-1-yl]m,ethyl]benzoate]",> 1
5,"CCCCCCN1C(=O)/C(=C/c2cnc(CCCC)n2Cc2ccc(C(=O)OC)cc2)N(CCCC)C1=O [Example 48, Methyl Z-4-[[2-butyl-5-[(3-butyl-1-hexyl-2,5-dioxo-4-imidazolidinylidene)methyl]-1H-imidazol-1-yl]methyl]benzoate monohydrochloride]",0.0146
6,"CCCCCCN1C(=O)/C(=C/c2cnc(CCCC)n2Cc2ccc(C(=O)OC)cc2)N(Cc2ccsc2)C1=O [Example 49, Methyl Z-4-[[2-butyl-5-[[1-hexyl-2,5-dioxo-3-(3-thienylmethyl)-4-imidazolidinylidene]methyl]-1H-imidazol-1-yl]methyl]benzoate monohydrochloride]",0.00948
7,"CCCCCCN1C(=O)/C(=C/c2cnc(CCCC)n2Cc2ccc(C(=O)OC)cc2)N(Cc2csc(C)n2)C1=O [Example 51, Methyl Z-4-[[2-butyl-5-[1-hexyl-3-[(2-methyl-4-thiazolyl)methyl-2,5-dioxo-4-imidazolidinylidene]methyl]-1H-imidazol-1-yl]methyl]benzoate dihydrochloride]",0.00533
8,CCCCc1ncc(/C=C2\NC(=O)N(COC)C2=O)n1Cc1ccc(C(=O)OC)cc1 [Example 53],> 1
9,"CCCCc1ncc(/C=C2/C(=O)N(COC)C(=O)N2CCCC)n1Cc1ccc(C(=O)OC)cc1 [Example 54, Methyl Z-4-[[2-butyl-5-[[3-butyl-1-(methoxymethyl)-2,5-dioxo-4-imidazolidinylidene]methyl]-1H-imidazol-1-yl]methyl]benzoate monohydrochloride]",0.0295
10,"CCCCc1ncc(/C=C2/C(=O)N(COC)C(=O)N2Cc2ccccc2)n1Cc1ccc(C(=O)OC)cc1 [Example 55, Methyl Z-4-[[2-butyl-5-[[1-(methoxymethyl)-2,5-dioxo-3-(phenylmethyl)-4-imidazolidinylidene]methyl]-1H-imidazol-1-yl]methyl]benzoate monohydrochloride]",0.0128
11,"CCCCc1ncc(/C=C2/C(=O)N(COC)C(=O)N2Cc2csc(C)n2)n1Cc1ccc(C(=O)OC)cc1 [Example 56, Methyl Z-4-[[2-butyl-5-[[1-(methoxymethyl)-3-[(2-methyl-4-thiazolyl)methyl]-2,5-dioxo-4-imidazolidinylidene]methyl]-1H-imidazol-1-yl]methyl]benzoate dihydrochloride]",0.0478
12,"CCCCc1ncc(/C=C2/C(=O)N(CCCC)C(=O)N2Cc2ccccn2)n1Cc1ccc(C(=O)OC)cc1 [Example 58, Methyl Z-4-[[2-butyl-5-[[1-butyl-2,5-dioxo-3-(2-pyridinylmethyl)-4-imidazolidinylidene]methyl]-1H-imidazol-1-yl]methyl]benzoate dihydrochloride]",0.00581
13,"CCCCc1ncc(/C=C2\C(=O)N(CCCC)C(=O)N2Cc2csc(C)n2)n1Cc1ccc(C(=O)O)cc1 [Example 60, E-4-[[2-butyl-5-[[1-butyl-3-[(2-methyl-4-thiazolyl)methyl]-2,5-dioxo-4-imidazolidinylidene]methyl]-1H-imidazol-1-yl]methyl]benzoic acid]",0.00263
14,CCCCc1ncc(/C=C2/C(=O)NC(=O)N2Cc2cccs2)n1Cc1ccc(C(=O)OC)cc1 [Example 63],0.00508
15,"CCCCc1ncc(/C=C2/C(=O)NC(=O)N2Cc2ccc(Cl)cc2)n1Cc1ccc(C(=O)OC)cc1 [Example 64, Methyl Z-4-[[2-butyl-5-[[3-[(4-chlorophenyl)methyl]-2,5-dioxo-4-imidazolidinylidene]methyl]-1H-imidazol-1-yl]methyl]benzoate monohydrochloride]",0.0043
